Target: Amyloid-beta precursor protein (Homo sapiens, UniProt P05067)
Assay: Inhibitory activity against binding of [125I]IMSB to amyloid beta in brain
Type: tissue-based

Amyloid-beta precursor protein, sequence (P05067 whole entry): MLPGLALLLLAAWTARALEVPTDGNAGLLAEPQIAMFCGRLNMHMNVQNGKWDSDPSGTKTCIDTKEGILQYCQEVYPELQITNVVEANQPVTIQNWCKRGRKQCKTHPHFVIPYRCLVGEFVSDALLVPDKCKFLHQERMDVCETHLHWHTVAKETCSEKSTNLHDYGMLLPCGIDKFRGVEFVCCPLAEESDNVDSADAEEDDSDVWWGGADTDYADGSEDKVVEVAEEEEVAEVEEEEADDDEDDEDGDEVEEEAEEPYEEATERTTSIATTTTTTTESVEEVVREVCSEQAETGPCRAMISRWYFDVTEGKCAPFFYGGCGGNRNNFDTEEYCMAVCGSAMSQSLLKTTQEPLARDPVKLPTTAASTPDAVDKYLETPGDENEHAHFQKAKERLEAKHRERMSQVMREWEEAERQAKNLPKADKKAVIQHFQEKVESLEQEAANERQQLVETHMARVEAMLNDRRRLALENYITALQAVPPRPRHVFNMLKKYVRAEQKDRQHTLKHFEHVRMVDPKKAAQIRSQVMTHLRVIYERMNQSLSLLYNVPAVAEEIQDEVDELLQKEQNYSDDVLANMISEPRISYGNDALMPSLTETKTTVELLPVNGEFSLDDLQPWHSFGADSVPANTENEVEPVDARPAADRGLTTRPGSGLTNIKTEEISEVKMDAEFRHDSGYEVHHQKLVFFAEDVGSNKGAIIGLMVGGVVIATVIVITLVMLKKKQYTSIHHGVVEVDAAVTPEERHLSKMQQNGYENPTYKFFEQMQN

SMILES	Ki [nM]
O=C(O)c1cc(/C=C\c2ccc(/C=C/c3ccc(O)c(C(=O)O)c3)cc2Br)ccc1O	0.19
O=C(O)c1cc(/C=C\c2ccc(/C=C/c3ccc(O)c(C(=O)O)c3)c(Br)c2)ccc1O	0.27
O=C(O)c1cc(/C=C\c2ccc(/C=C\c3ccc(O)c(C(=O)O)c3)c(Br)c2)ccc1O	0.13
O=C(O)c1ccccc1O [SALICYLIC ACID]	> 1800
O=C(O)c1cc(/C=C/c2ccc(/C=C/c3ccc(O)c(C(=O)O)c3)c(Br)c2)ccc1O	0.11

From ChEMBL document CHEMBL1134523, “Isomerization of (Z,Z) to (E,E)1-bromo-2,5-bis-(3-hydroxycarbonyl-4-hydroxy)styrylbenzene in strong base: probes for amyloid plaques in the brain” (J Med Chem, 2001)
